In patent publication US9132104B2, “Fortification of nutritional products with olive extracts containing hydroxytyrosol and hydroxytyrosol fortified nutritional products” (PROBELTE PHARMA S.A., priority 2007, dated 2015) one finds systolic blood pressure data, which are given here for one compound.

The assay concerns male Sprage Dawley rats. The assay can be described thus: L-NAME induced hypertension model, arterial blood pressure by tail-cuff method (Example 11). The assay is classed as in vivo. The following applies: rat, L-NAME 40 mg/Kg in drinking water, oral gavage 100 mg/Kg (group 6, positive control).

Method: Thirty-six male Sprage Dawley rats (weight aprox. 200 at the beginning of the experiment) were obtained from Harlan Interfauna Iberica SA (Barcelona, Spain) and maintained during all the experiment in the installations of the animalary service at the University of Murcia. The animals were randomly distributed into six experimental groups of 6 rats each one, housed under standard conditions of lighting (day/night cycles of 12 h), temperature (22±2° C.) and humidity (60%).
During the setting period and the experimental periods, rats were feed on a solid standard diet for rats (Panlab). Drinking water and food were available ad libitum. After an setting period of 7 days, treatments according the experimental design were started.
In order to determine the effect of fortified extra virgin olive oil (evoo added with the olive extract according to the present invention) N-nitro-L-arginine-methylester (L-NAME) induced hypertension model was used.
Arterial blood pressure was measured with a periodicity according the above cronogramme, by the tail-cuff method. Before the measurement, rats were kept at 37° C. for 10 min to make the pulsations of the tail artery detectable. […] The arterial blood pressure measurements were performed at the same time of the day in order to avoid any influence of the circadian cycle.

Turning to `C[C@H](CS)C(=O)N1CCC[C@H]1C(=O)O` [Captopril], the systolic blood pressure result is “significant reduction of the blood pressure values”.
